In patent publication US20230092232A1, “COMPOUNDS THAT MODULATE ANTI-TUMOR IMMUNITY AND METHODS OF DOING THE SAME” (University of Florida Research Foundation, Incorporated, priority 2020, published 2023):
Entries after “also recorded” stand apart in the source; their conditions may differ.

What was measured:
[1] = system: PBMCs from an HLA-A2 expressing individual (UF 86); assay: Ex vivo T cell stimulation assay, flow cytometry, HLA-A2 expressing PBMCs; assay type: cell-based, human; settings: for autologous mixed lymphocyte reaction: HLA-A2 expressing cells, FIG. 5
Experimental: Third, top scoring compounds were tested for their ability to modulate proliferation of peripheral blood mononuclear cells (PBMCs) from healthy individuals using ex vivo T cell stimulation assays. Here, the drugs predicted to bind HLA-A2 (FIGS. 4A-4I) were tested using PBMCs from HLA-typed normal individuals. In assays, drugs were incubated with PBMCs (for up to 14 days), and functional characteristics of the responding T cell population were assayed utilizing flow cytometry (e.g., using antibodies specific for CD3 and CD8). PBMCs were stimulated with drugs at […] per ml with interleukin-2 (IL-2) supplemented on day 2. […] PBMCs from an HLA-A2 expressing individual (“UF 86” is homozygous for HLA-A*02:01) were incubated with a panel of drugs predicted to bind HLA-A2 by molecular docking. PBMCs from an individual lacking HLA-A2 (“UF 85”) served as a control for HLA allele specificity. Cells were stained with antibodies specific for CD3, CD8 (cytotoxic T lymphocyte markers), CD69, and CD107a (LAMP-1) (activation markers) to identify those drugs from the top scoring grouping that modify cytotoxic T lymphocyte activity.

IMEA cells = assay: In vitro killing of IMEA HCC cells, with or without BALB/c splenocytes; assay type: cell-based, mouse; set-up: IMEA cell killing: unit of the concentration uncertain; settings: for enhanced killing of IMEA HCC: in vitro screening with T cells
Experimental: Prior to validation in human systems, a mouse system targeting hepatocellular carcinoma (HCC), the most common form of liver cancer, was used. IMEA is a murine HCC line of the H2^d haplotype, expressing the H2-D^d, H2-K^d, and H2-L^d allelic variants.
(§1) In a first set of experiments, drugs (e.g., small molecules) that bind IMEA MHC were selected from a database compiled using the in silico modeling and scoring methodology disclosed herein, and were tested for T cell stimulation and HCC killing in vitro. The crystal structure of H2-D^d was used as the basis for in silico selection of FDA-approved drugs predicted to bind the antigen binding cleft. DOCK6, a structure-based design program for early drug discovery (available for download at http://dock.compbio.ucsf.edu/) was used to screen 1,207 FDA approved small molecule drugs by parallel processing at the University of Florida High Performance Computing Center. An initial 1,207 FDA approved compounds were selected based upon their predicted ability to bind the HLA-A2 supertype, and thus their predicted efficacy across a wide swath of individuals. The top 40 scoring compounds were obtained from the National Cancer Institute Developmental Therapeutics Program.
IMEA cells were seeded in 24-well plates. At 30% confluence of IMEA cells, 0.5×10^6 of BALB/c mouse splenocytes were added to half of the wells. The compounds under evaluation were incubated with IMEA cells in concentrations […] and 1 mM, and supernatant was subsequently collected.

HLA alleles = settings: cited from earlier work
H2-D^d T cells = assay: In vitro T cell stimulation in the mouse HCC system; assay type: cell-based
Experimental: as §1
IMEA cells were seeded in 24-well plates. At 30% confluence of IMEA cells, 0.5×10^6 of BALB/c mouse splenocytes were added to half of the wells. The compounds under evaluation were incubated with IMEA cells in concentrations of 10 mM and 1 mM, and supernatant was subsequently collected.

[2] = cited from earlier work
[3] = system: peripheral blood mononuclear cells from hypersensitive HLA-B*57.01+ patients; settings: cultured with abacavir in vitro; cited from earlier work
HLA-B*57:01 = HLA-B*57:01 (Homo sapiens, UniProt P01889, D201E/D98Y/E176V/E187L/E204Q/E69M/E70A/G107R/I90N/K202T/L105A/L119I/N104I/N87E/Q89R/Q94S/R106L/R155S/R180L/R86G/S101N/S121V/S35A/S48A/T118I/V36M/Y140S/Y91M); settings: cited from earlier work

Question: With `O=C(O)c1ccc(I)cc1O` [drug 10] as the molecule, how does the “autologous mixed lymphocyte reaction” value [1] read?
Answer: inhibit

Question: With `Cl.Nc1ccn([C@@H]2O[C@H](CO)[C@@H](O)[C@@H]2O)c(=O)n1` [compound 63878] as the molecule, how does the IMEA cell killing (IMEA cells; 1 (unit uncertain)) read?
Answer: killed

Question: What about the IMEA cell killing (IMEA cells; 10 (unit uncertain)) of the same molecule?
Answer: killed

Question: With `CN1CCN(C2=Nc3cc(Cl)ccc3Nc3ccccc32)CC1` [Clozapine] as the molecule, how does the “HLA allele association(s) with adverse drug reaction” value (“HLA allele association(s)” below) (HLA alleles) read?
Answer: B38, DR4, DR2

Question: With `CC(=O)Oc1ccccc1C(=O)O` [Aspirin] as the molecule, how does the “HLA allele association(s)” value (HLA alleles) read?
Answer: DPB1*03:01; also recorded: DRB1*13:02-DQB1*06:09

Question: Which “HLA allele association(s)” value (HLA alleles) does the source give for Asparaginase here?
Answer: DRB1*07:01

Question: For `N[C@@H](Cc1ccc(N(CCCl)CCCl)cc1)C(=O)O` [compound 241286], which IMEA cell killing (IMEA cells; 10 (unit uncertain)) is on record?
Answer: killed

Question: Which “autologous mixed lymphocyte reaction” value [1] does the source give for `O=C(O)CNC(=O)C(Cl)Cl` [drug 3] here?
Answer: inhibit

Question: Which “number of activated CD8+ cells” value ([1]; day 4, FIG. 5) does the source give for `O=CC(Br)=C(Br)C(=O)O` [drug 11, 2,3-dibromo-4-oxobut-2-enoic acid] here?
Answer: enhances

Question: Which results are given for `Nc1ncn([C@@H]2O[C@H](CO)[C@@H](O)[C@H]2O)c(=O)n1` [vidaza]?
Answer: enhanced killing of IMEA HCC (IMEA cells): enhanced killing; stimulation of H2-D^d T cells (H2-D^d T cells): stimulated

Question: For `Nc1nc(NC2CC2)c2ncn([C@H]3C=C[C@@H](CO)C3)c2n1` [Abacavir], which “risk of a hypersensitivity reaction” value ([2]; HLA-B*57:01 patient) is on record?
Answer: ~50%

Question: What about the “overall incidence rate of hypersensitivity” value ([2]; no genetic prescreening, HLA-B*57:01+ and HLA-B*57:01- individuals) of the same molecule?
Answer: ~6%

Question: And the “immune response of PBMCs (interferon-γ, tumor necrosis factor-α, other inflammatory cytokines)” value [3]?
Answer: detectable immune response

Question: And the “CD8+ T cell activity” value (HLA-B*57:01; by binding HLA-B*57:01)?
Answer: enhances

Question: What about the “polyclonal T cell responses” value (HLA-B*57:01; drug naïve individuals that carry the HLA-B*57:01 allele) of the same molecule?
Answer: stimulates

Question: Which results are given for `NC(=O)c1ncn([C@@H]2O[C@H](CO)[C@@H](O)[C@H]2O)n1` [ribavirin]?
Answer: enhanced killing of IMEA HCC (IMEA cells): enhanced killing; stimulation of H2-D^d T cells (H2-D^d T cells): stimulated

Question: With `CC(C)(S)[C@@H](N)C(=O)O` [d-penicillamine] as the molecule, how does the “HLA allele association(s)” value (HLA alleles) read?
Answer: B8, DR3, DR1

Question: With `CCOC(=O)CN[C@@H](C(=O)N1CC[C@H]1C(=O)NCc1ccc(/C(N)=N\O)cc1)C1CCCCC1` [Ximelagatran] as the molecule, how does the “HLA allele association(s)” value (HLA alleles) read?
Answer: DRB1*07, DQA1*02; also recorded: DQB1*07:01

Question: For `NC(=O)c1ncn([C@@H]2O[C@H](CO)[C@@H](O)[C@H]2O)n1` [compound 163039], which IMEA cell killing (IMEA cells; 10 (unit uncertain)) is on record?
Answer: killed

Question: With `NNc1nncc2ccccc12` [Hydralazine] as the molecule, how does the “HLA allele association(s)” value (HLA alleles) read?
Answer: DR4

Question: For `CC1(C)S[C@@H]2[C@H](NC(=O)[C@H](N)c3ccccc3)C(=O)N2[C@H]1C(=O)O` [Aminopenicillins], which “HLA allele association(s)” value (HLA alleles) is on record?
Answer: A2, DRw52

Question: For `N[C@@H](Cc1ccc(N(CCCl)CCCl)cc1)C(=O)O` [melphalan], which “enhanced killing of IMEA HCC” value (IMEA cells) is on record?
Answer: enhanced killing

Question: And the “stimulation of H2-D^d T cells” value (H2-D^d T cells)?
Answer: stimulated

Question: Which IMEA cell killing (IMEA cells; 10 (unit uncertain)) does the source give for `Nc1ncn([C@@H]2O[C@H](CO)[C@@H](O)[C@H]2O)c(=O)n1` [compound 102816] here?
Answer: killed

Question: Which “HLA allele association(s)” value (HLA alleles) does the source give for `Cc1cc(NS(=O)(=O)c2ccc(N)cc2)no1` [Sulfamethoxazole] here?
Answer: A30; B13; Cw6
